The values below come from US5482975A, “Adenosine diphosphoribose polymerase binding nitroso aromatic compounds useful as retroviral inactivating agents, anti-retroviral agents and anti-tumor agents” (priority 1993, dated 1996).

Structures are written as SMILES. Entries after “also recorded” stand apart in the source; their conditions may differ.

One data set has as its target Zn(HIV1-F1) (Human immunodeficiency virus type 1 lw12.3 isolate, UniProt Q70622). Description: NMR study of Zn ejection from HIV-1 NC zinc finger peptide. The data set is classed as biochemical. Also on record: parent Gag (Gag-Pol) polyprotein. Here is the method:
The * and + symbols denote the aromatic proton signals of the zinc-coordinated and zinc-free His 9 residue. Upon completion of the reaction, reflected by complete ejection of zinc (t=90 min), 50% of the NOBA remained unreacted indicating a 1:1 reaction stoichiometry. NOBA (3-nitrosobenzamide), was synthesized described elsewhere in this application.
To determine if NOBA is capable of ejecting zinc from retroviral-type zinc fingers, NMR studies were performed on a peptide with amino acid sequence corresponding to the N-terminal CCHC zinc finger of the HIV-1 NC protein, Zn(HIV1-F1), South, et al., J. Am. Chem. Soc. 111:395-396 (1989), South, et al., Biochem Pharm. 40:123-129 (1990 ), Summers, et al., Biochemistry 29:329-340 (1990). NMR spectra of Zn(HIV-F1) were performed before and after the addition of NOBA (3-nitrosobenzamide). […] Chem Soc. 111:395-396 (1989), and three-dimensional structural studies have shown that the peptide adopts a structure that is essentially identical to the structure of the corresponding region in the intact NC protein, South, et al., Biochemistry 29:7786-7789 (1990). The down-field region of the ^1 H NMR spectrum showing the signals due to the aromatic proton of His 9 and Phe 2 is illustrated in FIG. 10 (bottom). Addition of two molar equivalents of NOBA results in the loss of the signals due to zinc-bound histidine (denoted by *) and the appearance of broad signals representative of zinc-free histidine (denoted by +). Other signals in the spectrum are due to NOBA protons. […] By comparison, a 10-fold molar excess of EDTA is required to remove zinc from Zn(HIV-1-F1), Summers, et al., J. Cell Biochem 45:41-48 (1991).

Another data set relates to HL-60 cells. The data set can be described thus: colony formation (CFU) of leukemic cells in semi-solid medium (FIG. 4). The class given is cell-based, human.
Data set [1] concerns HIV-1 (MN strain) virions. The data set can be described thus: zinc loss from HIV-1 virions. The data set is classed as biochemical. Here is the method:
Experiments were performed to determine if NOBA is capable of ejecting zinc from intact virions. HIV-1(MN strain) was produced, purified and concentrated as described in Bess et al., J. Virol. 66:840-847 (1992). The concentrated virus was diluted to 60 times that of culture fluid in TNE buffer (0.01 M Tris-HCl, 0.1M NaCl, 1 mM EDTA, pH 7.2) and incubated with 3000 or 6000 μM NOBA at 37° C. The virus was then pelleted and washed with TNE buffer to remove weakly bound zinc. The quantity of zinc in the resulting viral pellets was determined as described in Bess et al., J. Virol. 66:840-847 (1992).

Data set [2] concerns normal cells (neutrophil leukocytes and bone marrow or peripheral blood cells). The data set can be described thus: viability / functions of normal cells in presence of compounds.
Description: (§1) Experiments were performed in which the functions of various cancer cells (855-2 and HL-60 leukemia cells, D32, D37 and CRL 7712 glioblastoma cell lines, 186 medulla tumor cell line, L1210 murine leukemia cell line, MDA-468 human breast tumor cell line) and normal cells (neutrophil leukocytes and bone marrow or peripheral blood stream cells) were assessed in the absence or presence of the compounds.
In data set [3] the test system is 855-2 cells. Description: colony formation (CFU) of leukemic cells in semi-solid medium (FIG. 4). The class given is cell-based, human.
Description: as §1
In data set [4] the test system is various cancer cells (855-2, HL-60, D32, D37, CRL 7712, 186 medulla, L1210, MDA-468). The data set can be described thus: functions of various cancer cells in presence of compounds (FIGS. 4-9). Conditions: summary statement. The data set is classed as cell-based.
Description: as §1
The subject of the next data set is anti-tumor and anti-HIV. Description: biological action of nitroso compounds (anti-tumor and anti-HIV, summary). The class given is cell-based. Conditions: effective even after exposure of cells as short as 30 minutes.
The target of data set [5] is T1, Zn(HIV1-F1) oligonucleotide complex (Human immunodeficiency virus type 1 lw12.3 isolate, UniProt Q70622).
T1 construct: NC cut from Gag polyprotein (Pr55Gag)
Description: NMR study of Zn(HIV1-F1) nucleic acid binding. The data set is classed as biochemical, HIV-1. Particulars: two equivalents NOBA. From the text:
The downfield regions of the spectra show the signals of the aromatic and ribose H1' protons, and the upfield region contain signals of the methyl group protons. Dramatic spectral changes occur upon addition of oligonucleotide to Zn(HIV1-F1), including large upfield shifts of the Phe 2 and Ile 10 side chain=n signals and a downfield shifting and broadening of the guanosine-H8 proton signal (second from the top).
The reaction mechanism, schematically illustrated in FIG. 12, is consistent with the result of NMR analysis in FIGS. 10 and 11. The reaction mechanism proposed in FIG. 12 is a useful model but is not intended to limit the scope of the claimed invention.

The subject of data set [6] is human leukemia cell lines (855-2, H9, HL-60, K562). The data set can be described thus: [3H] thymidine uptake, human leukemia cell lines together. The data set is classed as cell-based. Conditions: 10 μM; each of the cell lines tested.
Data set [7] relates to 855-2 cells. Description: cytocidal activity, MTT assay. Conditions: 10 μM; 100,000 cells/ml. The class given is cell-based, human. Here is the method: MTT (3-[4,5-[…]]-2,5-diphenyltetrazolium bromide) at 1 mg/ml was then added for 16 hours. The absorbance of the pelleted cell was then measured at 550 nm after adding DMSO to solubilze the cells.
Background: Formazan colour is commonly taken as a measure of viable cells.

A further data set concerns H9 cells. Description: [3H] thymidine uptake, H9 cells (FIG. 2B). The class given is cell-based, human. Particulars: 250 μM; 10% FCS.

Description for HL-60 cells: as §1

For `NC(=O)c1cccc(N=O)c1` [NOBA, 3-nitrosobenzamide], the “time to complete ejection of zinc” value on Zn(HIV1-F1) (2 mM NOBA, 1 mM Zn(HIV1-F1), D2O, pH*=6.2, 30° C.) stood at 90 min. The “NOBA remaining unreacted on completion” value on Zn(HIV1-F1) (2 mM NOBA, t=90 min) was found to be 50%. Further, on Zn(HIV1-F1) (after 90 minutes), the “stoichiometry of reaction” value is listed as “reacts stoichiometrically with Zn(HIV1-F1)”. Moreover, the “zinc-bound His signals” value on Zn(HIV1-F1) (two molar equivalents, after 90 min.) is recorded as “no signals attributable to the zinc-bound His could be detected”. Besides, in the data set on HL-60 cells, the “ability to form colonies (CFU)” value is given as “inhibit the ability”. For the same molecule, the “loss of viral proteins in the pellet” value in [1] (3000 or 6000 μM, 37° C., p24, gp120 RIA, SDS-PAGE) is given as “No significant loss of viral proteins”. In addition, in data set [1] (concentrated HIV-1 (60x)), the “loss of infectivity” value is given as “complete loss of infectivity” and the “losses of viral zinc” value was 50-83%. Moreover, the “effect on colony formation by normal cells” value in data set [2] (anti-leukemic doses, rhesus bone marrow and human peripheral blood stem cells, FIG. 5) is reported as “minimal effect on normal cells”. Also, the “effect on viability of normal cells” value in [2] (tumor cell inhibitory concentrations) is “not to affect adversely the viability of normal cells”. The “ability to form colonies (CFU)” value in the data set on 855-2 cells [3] is “inhibit the ability”. For the same molecule, the “effectiveness against tumor cells” value in data set [4] was “highly effective”. In the data set on anti-tumor and anti-HIV, the “anti-tumor and anti-HIV activity” value is “highly active”. In addition, the “effect on zinc finger nucleic acid complex” value in [5] was “ejection of zinc with concomitant dissociation of the zinc finger nucleic acid complex; also recorded: NOBA-induced zinc ejection leads to loss of high-affinity nucleic acid binding function”. For the same molecule, the “inhibition of 3H-thymidine uptake” value in [6] is “powerfully inhibited”. The “cell killing” value with 855-2 cells [7] is “complete killing”. Besides, in the data set on H9 cells, the “inhibition of thymidine uptake” value is given as “almost complete inhibition”.
